Assay results published in patent US5086176A, “Tricyclic fused adenine derivatives” (priority 1991, dated 1992).
Where two headings read alike, the source gives them in different places.

Assays:
Adenosine A-1 receptor [1] = target: T1, Adenosine A-1 receptor (Rattus norvegicus, UniProt P25099); assay: Test for affinity for brain adenosine A-1 receptor binding sites ([3H]cyclohexyladenosine displacement); conditions: ratio of A-2 Ki to A-1 Ki
T1 sequence (P25099 1-326): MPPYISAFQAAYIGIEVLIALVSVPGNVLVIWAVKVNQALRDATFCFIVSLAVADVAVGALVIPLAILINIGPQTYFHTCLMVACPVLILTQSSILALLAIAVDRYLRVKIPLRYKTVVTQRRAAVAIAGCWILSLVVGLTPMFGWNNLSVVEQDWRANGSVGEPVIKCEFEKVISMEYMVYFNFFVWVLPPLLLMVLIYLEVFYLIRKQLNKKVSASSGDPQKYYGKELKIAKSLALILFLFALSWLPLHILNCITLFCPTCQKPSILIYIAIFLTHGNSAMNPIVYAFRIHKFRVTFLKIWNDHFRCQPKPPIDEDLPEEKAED

A-2 receptors = conditions: rank order; cited from earlier work
A-1 receptors = conditions: cited from earlier work
[2] = system: effects of adenosine analogs on heart rate and blood pressure; conditions: heart rate compared with blood pressure; cited from earlier work
Adenosine A-1 receptor [3] = target: T1, Adenosine A-1 receptor

## CCCOC1=Nc2c(cnn2-c2ccccc2)C2=N[C@H](C)[C@@H](c3ccccc3)N12 [Compound 7, (2R-trans)-2,7-dihydro-2-methyl-3,7-diphenyl-5-propoxy-3H-Imidazo-[1,2-c]pyrazolo[4,3-s]pyrimidine]
Adenosine A-1 receptor [1]
  A-2 Ki/A-1 Ki: 1.17

## C1=Nc2c(cnn2-c2ccccc2)C2=N[C@H](Cc3ccccc3)CN12 [Compound 3, (R)-2,7-dihydro-7-phenyl-2-(phenylmethyl)-3H-imidazo-[1,2-c]pyrazolo-[4,3-e]pyrimidine]
Adenosine A-1 receptor [1]
  A-2 Ki/A-1 Ki: 13.20

## CCNC(=O)[C@H]1O[C@@H](n2cnc3c(N)ncnc32)[C@H](O)[C@@H]1O [NECA, N-5'-ethylcarboxamidoadenosine]
A-2 receptors
  order of potency at A-2 receptors: NECA>2-chloroadenosine>R-PIA>CHA

## CCCn1c(=O)c2[nH]c(-c3ccc(OCC(=O)O)cc3)nc2n(CCC)c1=O [XCC]
A-1 receptors; A-1 versus A-2, in vitro
  adenosine receptor selectivity: non-selective

## Nc1nc(Cl)nc2c1ncn2[C@@H]1O[C@H](CO)[C@@H](O)[C@H]1O [2-chloroadenosine]
A-2 receptors
  order of potency at A-2 receptors: NECA>2-chloroadenosine>R-PIA>CHA

## CCCn1c(=O)c2[nH]c(-c3ccc(OCC(=O)NCCN)cc3)nc2n(CCC)c1=O [XAC]
[2]
  antagonizing the effects of adenosine analogs on heart rate versus blood pressure: much more potent in antagonizing the effects of adenosine analogs on heart rate than on blood pressure
A-1 receptors; A-1 Ki compared with Ki at A-2 receptors of the brain slice assay
  higher affinity for A-1 adenosine receptors: 40 fold

## C1=Nc2c(ncn2-c2ccccc2)C2=N[C@H](Cc3ccccc3)CN12 [Compound 6, (R)-7,8-dihydro-3-phenyl-8-(phenylmethyl)-3H-diimidazo[1,2-c: 4',5'-e]pyrimidine]
Adenosine A-1 receptor [3]
  A-2 Ki/A-1 Ki: 16.40
